The text below walks through data of patent US8350061B2, “Synthetic analogs of bacterial quorum sensors” (priority 2009, dated 2013).

What all share (assay type): cell-based
In test [1] the test system is A549 human lung epithelial cells.
Test [2] deals with Yersinia pestis, Yersinia enterocolitica and Yersinis pseudomonas.
In test [3] the test system is Yersinia pestis, Yersinia enterocolitica.

With `CCCC(=[Se])NC1CCOC1=O` (stereo not shown) [(IV), N-(2-oxo-tetrahydro-furan-3-yl)-selenobutyramide], in test [1], the “infection of cells by Pseudomonas aeruginosa” value is given as “prevented the infection of cells” and the viability of cells entry is listed as “increase in the viability of cells”. Further, the “viability of biofilm-growing bacteria” value in test [2] is recorded as “significantly inhibited”. Further, the biofilm formation result in test [3] is given as “significantly inhibited”.
